Results on 2 compounds are retold here after article PMC10594211, “Characterization of pyridylpiperazine-based efflux pump inhibitors for Acinetobacter baumannii” (JAC-Antimicrobial Resistance, 2023).

The target in one assay is T1, AcrB (AcrAB-TolC) (Escherichia coli, UniProt P31224).
T1 construct: full-length RND pump in E. coli cells; strain only in supplement; with Multidrug efflux pump subunit AcrA; Outer membrane protein TolC
Put plainly: antibiotic boosting in E. coli cells. The class given is cell-based.

The next assay addresses T2, AdeJ (Acinetobacter baumannii, UniProt Q2FD94).
T2 construct: native chromosomal AdeJ in A. baumannii cells (other RND pumps present); isogenic point mutants by allelic exchange; with Membrane fusion protein AdeI; Outer membrane efflux protein AdeK
Put plainly: antibiotic MIC and checkerboard in A. baumannii cells. It counts as cell-based. As to conditions: 40 µM EPI.

In the next assay the target is T3, AdeIJK (AdeJ) (Acinetobacter baumannii, UniProt Q2FD94).
T3 construct: adeIJK operon under acrA promoter in chromosome of E. coli ΔacrAB; tripartite RND pump; with Membrane fusion protein AdeI; Outer membrane efflux protein AdeK
Put plainly: antibiotic MIC in E. coli ΔacrAB expressing adeIJK (REMA). It counts as cell-based, Escherichia coli. To be noted: 40 µM EPI; fusidic acid, novobiocin, erythromycin, SDS.

A further assay addresses T4, AdeFGH (AdeG) (Acinetobacter baumannii, UniProt A0A090C131).
T4 construct: adeFGH operon under acrA promoter in chromosome of E. coli ΔacrAB; tripartite RND pump; with Membrane fusion protein AdeF; Outer membrane efflux protein AdeH
In words: antibiotic MIC in E. coli ΔacrAB expressing adeFGH (REMA). It counts as cell-based, Escherichia coli ΔacrAB. To be noted: 40 µM EPI; chloramphenicol, oxacillin, SDS.

As a reminder, the EC90 is the point of the concentration-response curve where the effect stands at 90%.

T1 sequence (P0AE06 25-397): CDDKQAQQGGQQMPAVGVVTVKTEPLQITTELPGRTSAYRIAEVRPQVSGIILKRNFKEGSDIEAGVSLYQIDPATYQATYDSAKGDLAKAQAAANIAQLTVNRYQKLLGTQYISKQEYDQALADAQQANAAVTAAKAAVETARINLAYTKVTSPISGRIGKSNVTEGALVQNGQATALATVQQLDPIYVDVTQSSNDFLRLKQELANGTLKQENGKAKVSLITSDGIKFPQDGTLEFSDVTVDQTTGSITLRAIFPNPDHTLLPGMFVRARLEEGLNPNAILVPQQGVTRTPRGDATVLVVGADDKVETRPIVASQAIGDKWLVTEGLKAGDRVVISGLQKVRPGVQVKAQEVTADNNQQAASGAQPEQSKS
T1 sequence (P02930 23-493, further chain): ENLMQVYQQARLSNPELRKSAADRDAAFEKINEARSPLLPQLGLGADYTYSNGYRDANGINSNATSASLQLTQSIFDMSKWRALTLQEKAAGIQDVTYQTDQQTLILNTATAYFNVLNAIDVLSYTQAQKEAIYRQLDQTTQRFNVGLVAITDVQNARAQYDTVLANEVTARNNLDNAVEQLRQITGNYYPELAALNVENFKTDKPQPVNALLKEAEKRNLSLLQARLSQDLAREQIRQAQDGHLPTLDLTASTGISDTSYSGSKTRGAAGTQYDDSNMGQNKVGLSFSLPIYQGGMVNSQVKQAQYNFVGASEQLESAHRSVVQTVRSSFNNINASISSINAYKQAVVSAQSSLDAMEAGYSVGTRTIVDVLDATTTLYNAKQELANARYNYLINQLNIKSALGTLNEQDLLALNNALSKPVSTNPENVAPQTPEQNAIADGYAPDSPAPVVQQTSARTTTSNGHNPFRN
T1 sequence (P31224 whole entry): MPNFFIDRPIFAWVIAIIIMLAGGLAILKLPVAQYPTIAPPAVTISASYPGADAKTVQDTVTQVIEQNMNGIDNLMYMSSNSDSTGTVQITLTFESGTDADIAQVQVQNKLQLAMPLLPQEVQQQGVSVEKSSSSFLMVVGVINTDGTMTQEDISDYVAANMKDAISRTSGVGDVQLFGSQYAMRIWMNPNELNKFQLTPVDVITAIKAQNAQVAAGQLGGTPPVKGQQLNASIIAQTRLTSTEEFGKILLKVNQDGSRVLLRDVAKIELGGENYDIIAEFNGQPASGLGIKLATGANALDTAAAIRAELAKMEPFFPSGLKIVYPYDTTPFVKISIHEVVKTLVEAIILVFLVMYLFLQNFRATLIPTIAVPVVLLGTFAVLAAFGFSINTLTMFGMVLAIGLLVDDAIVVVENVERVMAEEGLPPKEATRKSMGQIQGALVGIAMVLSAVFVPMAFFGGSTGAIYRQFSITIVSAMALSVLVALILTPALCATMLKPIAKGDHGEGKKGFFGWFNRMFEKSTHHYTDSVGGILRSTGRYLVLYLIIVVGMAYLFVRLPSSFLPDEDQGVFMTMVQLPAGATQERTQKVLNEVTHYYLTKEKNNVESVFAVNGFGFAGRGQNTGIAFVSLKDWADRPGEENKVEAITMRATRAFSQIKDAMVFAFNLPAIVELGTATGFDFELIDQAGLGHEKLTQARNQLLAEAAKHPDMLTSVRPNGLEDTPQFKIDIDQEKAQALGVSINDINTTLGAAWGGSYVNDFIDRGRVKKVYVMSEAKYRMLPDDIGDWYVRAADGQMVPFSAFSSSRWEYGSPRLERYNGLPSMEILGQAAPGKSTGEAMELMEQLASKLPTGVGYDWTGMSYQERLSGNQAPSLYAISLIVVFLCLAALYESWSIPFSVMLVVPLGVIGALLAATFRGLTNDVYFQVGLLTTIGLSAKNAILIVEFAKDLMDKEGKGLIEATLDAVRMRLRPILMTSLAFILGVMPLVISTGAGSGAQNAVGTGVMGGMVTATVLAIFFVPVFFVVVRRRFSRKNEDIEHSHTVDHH
T4 sequence (A0A090C131 entry or part of it): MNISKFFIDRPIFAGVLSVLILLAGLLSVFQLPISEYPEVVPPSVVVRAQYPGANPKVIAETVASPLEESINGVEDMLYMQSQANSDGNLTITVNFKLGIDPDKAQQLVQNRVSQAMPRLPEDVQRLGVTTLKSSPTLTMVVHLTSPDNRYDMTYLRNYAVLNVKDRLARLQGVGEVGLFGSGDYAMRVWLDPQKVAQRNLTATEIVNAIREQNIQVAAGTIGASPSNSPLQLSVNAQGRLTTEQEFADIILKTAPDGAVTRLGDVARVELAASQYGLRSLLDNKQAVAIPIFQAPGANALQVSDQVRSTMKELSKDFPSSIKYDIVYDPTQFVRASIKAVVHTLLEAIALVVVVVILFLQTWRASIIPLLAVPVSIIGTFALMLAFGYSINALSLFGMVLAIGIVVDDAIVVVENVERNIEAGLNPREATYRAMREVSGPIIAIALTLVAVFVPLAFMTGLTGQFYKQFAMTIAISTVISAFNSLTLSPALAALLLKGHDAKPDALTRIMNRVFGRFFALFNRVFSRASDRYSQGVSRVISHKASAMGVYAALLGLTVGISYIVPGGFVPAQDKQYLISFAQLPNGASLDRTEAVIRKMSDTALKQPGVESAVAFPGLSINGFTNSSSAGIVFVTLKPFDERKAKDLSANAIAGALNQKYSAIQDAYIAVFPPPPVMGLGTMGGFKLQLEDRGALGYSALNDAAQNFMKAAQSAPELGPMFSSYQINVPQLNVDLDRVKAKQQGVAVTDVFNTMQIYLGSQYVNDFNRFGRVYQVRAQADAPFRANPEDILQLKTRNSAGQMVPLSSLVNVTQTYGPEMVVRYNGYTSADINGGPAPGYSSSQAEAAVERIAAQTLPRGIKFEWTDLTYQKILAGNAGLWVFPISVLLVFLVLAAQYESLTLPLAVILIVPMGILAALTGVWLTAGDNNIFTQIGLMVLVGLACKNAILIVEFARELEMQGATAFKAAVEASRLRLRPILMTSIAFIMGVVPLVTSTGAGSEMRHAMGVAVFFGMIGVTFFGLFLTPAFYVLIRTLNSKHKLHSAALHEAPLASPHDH
T4 sequence (A0A0N9Q906 entry or part of it, further chain): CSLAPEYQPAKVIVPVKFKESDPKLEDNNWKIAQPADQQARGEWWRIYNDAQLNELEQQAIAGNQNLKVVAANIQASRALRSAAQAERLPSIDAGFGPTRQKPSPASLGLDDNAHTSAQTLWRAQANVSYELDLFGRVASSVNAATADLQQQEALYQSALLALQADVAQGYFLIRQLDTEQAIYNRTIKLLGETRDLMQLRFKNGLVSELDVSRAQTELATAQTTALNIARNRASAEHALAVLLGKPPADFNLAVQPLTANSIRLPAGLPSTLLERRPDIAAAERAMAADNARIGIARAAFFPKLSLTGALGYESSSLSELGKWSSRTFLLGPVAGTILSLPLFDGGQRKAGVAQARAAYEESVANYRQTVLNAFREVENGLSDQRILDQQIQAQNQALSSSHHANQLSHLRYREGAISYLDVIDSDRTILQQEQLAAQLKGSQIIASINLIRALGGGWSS
T4 sequence (A0A0N9QP12 entry or part of it, further chain): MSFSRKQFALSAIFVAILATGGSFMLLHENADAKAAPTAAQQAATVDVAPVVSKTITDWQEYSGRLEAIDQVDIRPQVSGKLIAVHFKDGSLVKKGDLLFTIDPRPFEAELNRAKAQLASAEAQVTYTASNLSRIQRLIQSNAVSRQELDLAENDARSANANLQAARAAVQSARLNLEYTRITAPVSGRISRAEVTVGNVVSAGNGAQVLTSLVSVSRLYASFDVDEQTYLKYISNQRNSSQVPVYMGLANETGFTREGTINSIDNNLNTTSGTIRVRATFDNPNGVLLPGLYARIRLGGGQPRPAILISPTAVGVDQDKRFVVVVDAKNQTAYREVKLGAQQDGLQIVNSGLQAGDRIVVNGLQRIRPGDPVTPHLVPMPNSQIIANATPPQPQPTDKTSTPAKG

Regarding `NCCc1ccccc1C#Cc1cnc(N2CCNCC2)c(Cl)c1` [compound 11, BDM91892], the 90% effect level at AcrB (AcrAB-TolC) (EC90) was put at 1500 nM. Moreover, the MIC result at AdeJ was “antibiotic boosting in A. baumannii by BDM91531, BDM91892 or PAβN is through AdeIJK inhibition”; on AdeIJK (AdeJ), “both BDM91531 and BDM91892 can inhibit the activity of AdeFGH and AdeIJK”; at AdeFGH (AdeG), “both BDM91531 and BDM91892 can inhibit the activity of AdeFGH and AdeIJK”.
`NCc1cccc(-c2ccc3nc(N4CCNCC4)c(Cl)cc3c2)c1` [compound 1, BDM91531] displayed an EC90 on AcrB (AcrAB-TolC) of 240 nM. The MIC result on AdeJ is “antibiotic boosting in A. baumannii by BDM91531, BDM91892 or PAβN is through AdeIJK inhibition”; at AdeIJK (AdeJ), “both BDM91531 and BDM91892 can inhibit the activity of AdeFGH and AdeIJK”; at AdeFGH (AdeG) it was “both BDM91531 and BDM91892 can inhibit the activity of AdeFGH and AdeIJK”.
